Experimental data reported in patent US20170027172A1, “USE OF SUBSTITUTE OXO TETRAHYDROQUINOLINE SULFONAMIDES OR SALTS THEREOF FOR RAISING STRESS TOLERANCE OF PLANTS” (BAYER CROPSCIENCE AKTIENGESELLSCHAFT, priority 2014, published 2017).

Tests used:
[1] = system: Triticum aestivum; assay: Drought stress test on wheat Part D, reduction in damage intensity from fresh weights; format: in vivo; conditions: efficacy = reduction in damage intensity (fresh weight) under drought stress, at least three repeats
Source text: Wheat grains were sown in a standardized number in sandy loam soil plastic pots, covered with soil or sand and grown in a greenhouse under good growth conditions. Pots with uneven degrees of emergence were excluded prior to the start of the trial. The treatment with test substances was effected at the early leaf stage (BBCH10-BBCH13). To assure uniform water supply, the potted plants were supplied with water by dam irrigation prior to substance application. The inventive compounds were first formulated as wettable powders (WP) or dissolved in a solvent mixture. The further dilution was effected with water supplemented with 0.2% wetting agent (e.g. agrotin). The finished spray liquor was sprayed onto the green parts of the plant at an equivalent water application rate of 600 l/ha. Substance application was followed immediately by stress treatment of the plants. Drought stress was induced by gradual drying out under the following conditions: “Day”: 14 hours with illumination at 26-30° C. “Night”: 10 hours without illumination at 18-20° C. The duration of the respective stress phases was guided mainly by the condition of the stressed control plants. It was ended (by re-irrigating and transfer to a greenhouse with good growth conditions) as soon as irreversible damage was observed on the stressed control plants. The end of the stress phase was followed by an about 7-day recovery phase, during which the plants were once again kept under good growth conditions in a greenhouse. The exact duration of the recovery phase was variable for reasons related to the trial. At the end of the recovery phase, the fresh weights of the plant parts above ground were determined. By comparison with unstressed control plants which were kept under good growth conditions over the entire duration of the trial, percentage damage intensities were first calculated from the fresh weight values. The reduction in damage intensity resulting from treatment with test substance was then calculated by the following formula: [formula] EF: Efficacy DIs: Damage intensity of the stressed control plants DIt: Damage intensity of the stressed plants treated with test compound The values reported in table D-1 below are results from at least three repeats. BRSNS=Brassica napus TRZAS=Triticum aestivum

[2] = target: T1, phosphatase ABI1 via the co-regulator RCAR11/PYR1 (Arabidopsis thaliana, UniProt O49686+P49597); assay: In vitro inhibition of the phosphatase ABI1 via the co-regulator RCAR11/PYR1, MUP dephosphorylation; format: biochemical; design: dose or concentration left out as unconfirmed; conditions: in a solution of DMSO and water; fluorescence at 460 nm
T1 sequence (O49686 1-191): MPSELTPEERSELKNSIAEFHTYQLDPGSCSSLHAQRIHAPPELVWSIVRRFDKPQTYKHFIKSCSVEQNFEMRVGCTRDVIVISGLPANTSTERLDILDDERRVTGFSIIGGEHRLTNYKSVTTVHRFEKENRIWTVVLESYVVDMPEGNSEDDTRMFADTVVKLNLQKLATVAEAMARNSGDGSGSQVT
T1 sequence (P49597 1-434): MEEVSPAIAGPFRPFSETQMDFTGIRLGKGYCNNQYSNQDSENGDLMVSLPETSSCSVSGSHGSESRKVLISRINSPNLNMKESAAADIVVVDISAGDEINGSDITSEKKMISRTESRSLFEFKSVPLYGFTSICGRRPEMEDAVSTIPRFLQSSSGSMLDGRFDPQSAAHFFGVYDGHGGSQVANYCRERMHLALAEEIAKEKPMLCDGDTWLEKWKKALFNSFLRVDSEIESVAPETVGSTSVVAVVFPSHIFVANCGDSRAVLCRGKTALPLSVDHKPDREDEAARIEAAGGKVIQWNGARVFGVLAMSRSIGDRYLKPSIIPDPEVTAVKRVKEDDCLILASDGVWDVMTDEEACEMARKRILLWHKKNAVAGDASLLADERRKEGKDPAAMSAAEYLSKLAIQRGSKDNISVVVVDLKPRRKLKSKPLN
Source text: Effects of the phytohormone abscisic acid (ABA) on the behavior of plants under abiotic stress and the mechanism of action of ABA are described in the literature (cf. Abrams et al., WO97/23441, Park et al. Science, 2009, 324, 1068; Grill et al. Science, 2009, 324, 1064; Tanokura et al. Biophysics, 2011, 7, 123; Schroeder et al. Plant J. 2010, 61, 290). Therefore, it is possible with the aid of a suitable in vitro test system to derive a correlation between the action of ABA and the stress response of a plant under abiotic stress. In the event of water deficiency (drought stress), plants form the phytohormone abscisic acid (ABA). This binds, along with a co-regulator (Regulatory Component of ABA-Receptor=RCAR according to Grill et al. Science, 2009, 324, 1064 or PYR/PYL according to Cutler et al. Science, 2009, 324, 1068), to a phosphatase (e.g. ABI1, a type 2C protein phosphatase, also abbreviated to PP2C) and inhibits its activity. As a result, a “downstream” kinase (e.g. SnRK2) is no longer dephosphorylated. This kinase, which is thus active, via phosphorylation of transcription factors (e.g. AREB/ABF, cf. Yoshida et al., 2010, 61, 672), switches on a genetic protection program to increase drought stress tolerance. The assay described hereinafter utilizes the inhibition of the phosphatase ABI1 via the co-regulator RCAR11/PYR1 aus Arabidopsis thaliana. For the determination of activity, the dephosphorylation of 4-methylumbelliferyl phosphate (MUP) was measured at 460 nm. The in vitro assay was conducted in Greiner 384-well PS microplates F-well, using two controls: a) 0.5% dimethyl sulfoxide (DMSO) and b) 5 μM abscisic acid (ABA). The assay described here was generally conducted with substance concentrations of the appropriate chemical test substances in a concentration range of 0.1 μM to 100 μM in a solution of DMSO and water. The substance solution thus obtained, if necessary, was stirred with esterase from porcine liver (EC 3.1.1.1) at room temperature for 3 h and centrifuged at 4000 rpm for 30 min. A total volume of 45 μl was introduced into each cavity of the microplate, having the following composition: • 1) 5 μl of substance solution, i.e. a) DMSO 5% or b) abscisic acid solution or c) the corresponding example compound of the general formula (I) dissolved in 5% DMSO. • 2) 20 μl of enzyme buffer mix, composed of a) 40% by vol. of enzyme buffer (10 mL contain equal proportions by volume of 500 mM Tris-HCl pH 8, 500 mM NaCl, 3.33 mM MnCl2, 40 mM dithiothreitol (DTT)), b) 4% by vol. of ABI1 dilution (protein stock solution was diluted so as to give, after addition, a final concentration in the assay of 0.15 μg ABI1/well), c) 4% by vol. of RCAR11 dilution (enzyme stock was diluted so as to give, on addition of the dilution to the enzyme buffer mix, a final concentration in the assay of 0.30 μg enzyme/well), d) 5% by vol. of Tween20 (1%), e) 47% by vol. H2O bi-dist. • 3) 20 μl of substrate mix, composed of a) 10% by vol. of 500 mM Tris-HCl pH8, b) 10% by vol. of 500 mM NaCl, c) 10% by vol. of 3.33 mM MnCl2, d) 5% by vol. of 25 mM MUP, 5% by vol. of Tween20 (1%), 60% by vol. of H2O bi-dist.
Enzyme buffer mix and substrate mix were made up 5 minutes prior to the addition and warmed to a temperature of 35° C. On completion of pipetting of all the solutions and on completion of mixing, the plate was incubated at 35° C. for 20 minutes. Finally, a relative fluorescence measurement was made at 35° C. with a BMG Labtech “POLARstar Optima” microplate reader using a 340/10 nm excitation filter and a 460 nm emission filter. The efficacy of the compounds of the general formula (I) is reported in the table which follows using abscisic acid […] as comparative substance (No. 37) according to the following classification: ++++ (inhibition≧90%), +++ (90%>inhibition≧70%), ++ (70%>inhibition≧50%), + (50%>inhibition≧30%). […]

[3] = system: Triticum aestivum; assay: Drought stress greenhouse test Part C, visual scoring vs stressed control plants; format: in vivo; conditions: efficacy range of 3-4 pots
Method: Seeds of monocotyledonous and dicotyledonous crop plants were sown in sandy loam in plastic or wood-fiber pots, covered with soil or sand and cultivated in a greenhouse under good growth conditions. The trial plants were treated at the early leaf stage (BBCH10-BBCH13). To assure uniform water supply before commencement of stress, the potted plants were supplied with water by dam irrigation prior to substance application. The inventive compounds were first formulated as wettable powders (WP) or dissolved in a solvent mixture. The further dilution was effected with water supplemented with 0.2% wetting agent (e.g. agrotin). The finished spray liquor was sprayed onto the green parts of the plant at an equivalent water application rate of 600 l/ha. Substance application was followed immediately by stress treatment of the plants. For this purpose, the wood-fiber pots were transferred in plastic inserts in order to prevent them from subsequently drying out too quickly. Drought stress was induced by gradual drying out under the following conditions: “Day”: 14 hours with illumination at 26-30° C. “Night”: 10 hours without illumination at 18-20° C. The duration of the respective stress phases was guided mainly by the condition of the stressed control plants. It was ended (by re-irrigating and transfer to a greenhouse with good growth conditions) as soon as irreversible damage was observed on the stressed control plants. The end of the stress phase was followed by an about 4-7-day recovery phase, during which the plants were once again kept under good growth conditions in a greenhouse. The duration of the recovery phase was guided mainly by when the trial plants had attained a state which enabled visual scoring of potential effects, and was therefore variable. Once this juncture had been reached, the appearance of the plants treated with test substances was recorded in comparison to the stressed control plants by the following categories: [table] For each substance and dosage, 3-4 pots were treated and evaluated. […] BRSNS=Brassica napus TRZAS=Triticum aestivum

| ABI1 inhibition [2] | SMILES | EF [%] (TRZAS) ([1]; 250 g/ha) | other results |
| --- | --- | --- | --- |
| ++ (70%>inhibition≧50%) | N#CCCCN1C(=O)CCc2cc(NS(=O)(=O)Cc3cccc(Cl)c3)ccc21 [A48-166] | 13 |  |
|  | CCC1(C)CC(=O)N(CCOC)c2ccc(NS(=O)(=O)Cc3ccc(Cl)cc3)cc21 (racemic) [F7-165] |  | Effect (TRZAS) ([3]; spray application 25 g/ha): 10-20 |
|  | CCOC(=O)CCN1C(=O)CC(C)(C)c2cc(NS(=O)(=O)Cc3ccc(Br)cc3)ccc21 [B52-172] | 14 |  |
|  | O=C1CC2(CCC2)c2cc(NS(=O)(=O)Cc3ccc(Cl)cc3)ccc2N1CC1CC1 [J3-165] |  | Effect (TRZAS) ([3]; spray application 250 g/ha): 10-20 |
|  | COC(=O)CN1C(=O)CC(C)(C)c2cc(NS(=O)(=O)Cc3ccc(F)cc3)ccc21 [B50-158] | 18 |  |
|  | CCOC(=O)CCN1C(=O)CC(C)(C)c2cc(NS(=O)(=O)Cc3cccc(Cl)c3)ccc21 [B52-166] | 14 |  |
|  | COC(=O)CN1C(=O)CC(C)(C)c2cc(NS(=O)(=O)Cc3ccccc3Cl)ccc21 [B50-168] | 14 |  |
|  | CCOC(=O)CCN1C(=O)CC(C)(C)c2cc(NS(=O)(=O)Cc3ccc(F)cc3)ccc21 [B52-158] |  | EF [%] (TRZAS) ([1]; 25 g/ha): 10% |
| ++++ (inhibition≧90%) | COC(=O)CCN1C(=O)CCc2cc(NS(=O)(=O)Cc3ccc(C#N)cc3)ccc21 [A51-181] | 15 |  |
|  | COC(=O)CN1C(=O)CC(C)(C)c2cc(NS(=O)(=O)Cc3ccc([N+](=O)[O-])cc3)ccc21 [B50-175] |  | EF [%] (TRZAS) ([1]; 25 g/ha): 12% |
|  | COC(=O)CCN1C(=O)CC(C)(C)c2cc(NS(=O)(=O)Cc3cccc(Br)c3)ccc21 [B51-173] |  | EF [%] (TRZAS) ([1]; 25 g/ha): 16% |
| ++ (70%>inhibition≧50%) | COC(=O)CN1C(=O)CCc2cc(NS(=O)(=O)Cc3ccccc3[N+](=O)[O-])ccc21 [A50-177] | 19 |  |
|  | CCOC(=O)CCN1C(=O)CC(C)(C)c2cc(NS(=O)(=O)Cc3cccc(Br)c3)ccc21 [B52-173] |  | EF [%] (TRZAS) ([1]; 25 g/ha): 14% |
|  | COC(=O)CN1C(=O)CC(C)(C)c2cc(NS(=O)(=O)Cc3ccc(C(F)(F)F)cc3)ccc21 [B50-178] | 20 |  |
| ++ (70%>inhibition≧50%) | COC(=O)CCN1C(=O)CCc2cc(NS(=O)(=O)Cc3cccc(C)c3)ccc21 [A51-153] | 16 |  |
|  | COC(=O)CCN1C(=O)CC(C)(C)c2cc(NS(=O)(=O)Cc3ccc(F)cc3)ccc21 [B51-158] |  | EF [%] (TRZAS) ([1]; 25 g/ha): 13% |
| ++ (70%>inhibition≧50%) | COC(=O)CCN1C(=O)CCc2cc(NS(=O)(=O)Cc3cccc(Cl)c3)ccc21 [A51-166] | 20 |  |
|  | COC(=O)CN1C(=O)CC(C)(C)c2cc(NS(=O)(=O)Cc3cccc(C(F)(F)F)c3)ccc21 [B50-179] | 15 |  |
|  | CCOC(=O)CCN1C(=O)CC(C)(C)c2cc(NS(=O)(=O)Cc3ccc([N+](=O)[O-])cc3)ccc21 [B52-175] | 10 |  |
| ++++ (inhibition≧90%) | COC(=O)CCN1C(=O)CCc2cc(NS(=O)(=O)Cc3ccc(C(F)(F)F)cc3)ccc21 [A51-178] |  | EF [%] (TRZAS) ([1]; 25 g/ha): 10% |
| ++++ (inhibition≧90%) | Cc1ccc(CS(=O)(=O)Nc2ccc3c(c2)CCC(=O)N3CC(F)F)cc1 [A1-152] |  |  |
| ++ (70%>inhibition≧50%) | COC(=O)CCN1C(=O)CCc2cc(NS(=O)(=O)Cc3cccc(Br)c3)ccc21 [A51-173] |  |  |
| ++++ (inhibition≧90%) | COC(=O)CN1C(=O)CCc2cc(NS(=O)(=O)Cc3ccc(Br)cc3)ccc21 [A50-172] |  |  |
| ++++ (inhibition≧90%) | COC(=O)CCN1C(=O)CCc2cc(NS(=O)(=O)Cc3ccc(Cl)cc3)ccc21 [A51-165] |  | EF [%] (TRZAS) ([1]; 25 g/ha): 18% |
